Test results reported in the CheMixHub viscosity set.

Assay: xn = mol fraction of the nth substance listed
Conditions: 101.33 kPa

OCCCl + CCCO
viscosity [mPa·s]
Conditions | x1 = 0.099 | x1 = 0.1945 | x1 = 0.2948 | x1 = 0.3912 | x1 = 0.4924 | x1 = 0.5924 | x1 = 0.693 | x1 = 0.8071 | x1 = 0.8959
298.15 K | 1.761 | 1.802 | 1.842 | 1.92 | 2.028 | 2.148 | 2.281 | 2.428 | 2.6
303.15 K | 1.58 | 1.62 | 1.67 | 1.735 | 1.813 | 1.891 | 2.02 | 2.16 | 2.3
308.15 K | 1.4 | 1.44 | 1.48 | 1.542 | 1.606 | 1.678 | 1.76 | 1.88 | 2.001

OCCCl + CCCOC(C)=O
viscosity [mPa·s]
Conditions | x1 = 0.1017 | x1 = 0.2031 | x1 = 0.3017 | x1 = 0.4061 | x1 = 0.5057 | x1 = 0.5974 | x1 = 0.7006 | x1 = 0.7963 | x1 = 0.9006
298.15 K | 0.593 | 0.658 | 0.736 | 0.852 | 0.989 | 1.155 | 1.43 | 1.805 | 2.302
303.15 K | 0.557 | 0.614 | 0.687 | 0.792 | 0.908 | 1.057 | 1.293 | 1.615 | 2.035
308.15 K | 0.525 | 0.58 | 0.642 | 0.733 | 0.856 | 0.97 | 1.177 | 1.473 | 1.81

CCCC(O)CC (configuration not stated) + CCO
298.15 K
Conditions | viscosity [mPa·s]
x2 = 0.1028 | 4.236
x2 = 0.2116 | 3.975
x2 = 0.3124 | 3.658
x2 = 0.4135 | 3.218
x2 = 0.5018 | 2.88
x2 = 0.6027 | 2.459
x2 = 0.6987 | 2.054
x2 = 0.7994 | 1.673
x2 = 0.9044 | 1.363

CN1CCC[C@H]1c1cccnc1 + CCO
viscosity [mPa·s]
Conditions | 298.15 K | 323.15 K
x1 = 0.0501 | 1.468 | 0.8557
x1 = 0.1104 | 1.756 | 1.03
x1 = 0.1524 | 1.941 | 1.123
x1 = 0.2923 | 2.477 | 1.376
x1 = 0.3425 | 2.652 | 1.482
x1 = 0.4474 | 3.004 | 1.703
x1 = 0.4676 | 3.008 | 1.764
x1 = 0.5898 | 3.224 | 1.784
x1 = 0.6839 | 3.497 | 1.88
x1 = 0.7725 | 3.564 | 1.961
x1 = 0.8957 | 3.801 | 2.026
x1 = 0.8976 | 3.803 | 2.026
